We go through 29 molecules from US7491819B1 (priority 2004, dated 2009).

The target in this experiment is T1, HIV-integrase (Human immunodeficiency virus type 1 group M subtype B, UniProt P12497).
T1 construct: Recombinant integrase (0.26 ng) was incubated with the beads
Nature of the experiment: HIV-Integrase Inhibition Activity (SPA bead strand-transfer assay). It is filed as biochemical. The conditions noted are these: Table 1; read-out: Activity (HIV-integrase inhibition, IC50 class). A digest of the protocol:
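Strand-transfer read-out: CPM from P33-labelled target DNA (0.1 fmol) joined to bead-bound biotin substrate DNA (5 pmole), with EDTA stop at 10 mM final. Integrase (0.26 ng) prebound to streptavidin SPA beads 90 min, 37° C, and washed before adding inhibitor.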

The term IC50 denotes the concentration that inhibits the measured activity by half. For `CC1(C)OCCn2c1nc(C(=O)NCc1ccccc1-c1ccc(CN)cc1)c(O)c2=O` [Example 169], the IC50 fell in the range of 2 to 100 nM. In the case of `CN(C)C(=O)c1ccc(-c2ccccc2CNC(=O)c2nc3n(c(=O)c2O)CCOC3(C)C)cc1` [Example 170, Pyrimido[2,1-c][1,4]oxazine-2-carboxamide, N-[[4′-[(dimethylamino)carbonyl][1,1′-biphenyl]-2-yl]methyl]-4,6,7,9-tetrahydro-3-hydroxy-9,9-dimethyl-4-oxo-], the half-maximal inhibitory concentration (IC50) lay within 2 to 100 nM. Turning to `CN(C)C(=O)c1cccc(-c2ccccc2CNC(=O)c2nc3n(c(=O)c2O)CCOC3(C)C)c1` [Example 171], the half-maximal inhibitory concentration (IC50) lay within 2 to 100 nM. In the case of `CC1(C)OCCn2c1nc(C(=O)NCc1ccccc1-c1cccc(C(=O)N3CCCC3)c1)c(O)c2=O` [Example 172, Pyrimido[2,1-c][1,4]oxazine-2-carboxamide, 4,6,7,9-tetrahydro-3-hydroxy-9,9-dimethyl-4-oxo-N-[[3′-(1-pyrrolidinylcarbonyl)[1,1′-biphenyl]-2-yl]methyl]-], the half-inhibitory concentration (IC50) was in the range of 2 to 100 nM.

For the molecule `CC1(C)OCCn2c1nc(C(=O)NCc1ccccc1-c1ccc(C(N)=O)cc1)c(O)c2=O` [Example 173, Pyrimido[2,1-c][1,4]oxazine-2-carboxamide, N-[[4′-(aminocarbonyl)[1,1′-biphenyl]-2-yl]methyl]-4,6,7,9-tetrahydro-3-hydroxy-9,9-dimethyl-4-oxo-], the IC50 is 2 to 100 nM.

As for `CC1(C)OCCn2c1nc(C(=O)NCc1ccccc1-c1cccc(C(N)=O)c1)c(O)c2=O` [Example 174, Pyrimido[2,1-c][1,4]oxazine-2-carboxamide, N-[[3′-(aminocarbonyl)[1,1′-biphenyl]-2-yl]methyl]-4,6,7,9-tetrahydro-3-hydroxy-9,9-dimethyl-4-oxo-], the half-inhibitory concentration (IC50) is 2 to 100 nM. The result for `CNC(=O)c1ccc(-c2ccccc2CNC(=O)c2nc3n(c(=O)c2O)CCOC3(C)C)cc1` [Example 175, Pyrimido[2,1-c][1,4]oxazine-2-carboxamide, 4,6,7,9-tetrahydro-3-hydroxy-9,9-dimethyl-N-[[4′-[(methylamino)carbonyl][1,1′-biphenyl]-2-yl]methyl]-4-oxo-] reads 2 to 100 nM; that for `CC1(C)OCCn2c1nc(C(=O)NCc1ccccc1-c1cccc(NS(C)(=O)=O)c1)c(O)c2=O` [Example 176, Pyrimido[2,1-c][1,4]oxazine-2-carboxamide, 4,6,7,9-tetrahydro-3-hydroxy-9,9-dimethyl-N-[[3′-[(methylsulfonyl)amino][1,1′-biphenyl]-2-yl]methyl]-4-oxo-], 2 to 100 nM. Consider `CC1(C)OCCn2c1nc(C(=O)NCc1ccccc1-c1ccc3[nH]ccc3c1)c(O)c2=O` [Example 177, Pyrimido[2,1-c][1,4]oxazine-2-carboxamide, 4,6,7,9-tetrahydro-3-hydroxy-N-[[2-(1H-indol-5-yl)phenyl]methyl]-9,9-dimethyl-4-oxo-], for which the IC50 fell in the range of 2 to 100 nM. `CN(C)Cc1ccc(-c2ccccc2CNC(=O)c2nc3n(c(=O)c2O)CCOC3(C)C)cc1` [Example 178, Pyrimido[2,1-c][1,4]oxazine-2-carboxamide, N-[[4′-[(dimethylamino)methyl][1,1′-biphenyl]-2-yl]methyl]-4,6,7,9-tetrahydro-3-hydroxy-9,9-dimethyl-4-oxo-]: the half-inhibitory concentration (IC50) was 2 to 100 nM. Regarding `CC1(C)OCCn2c1nc(C(=O)NCc1ccccc1-c1ccsc1)c(O)c2=O` [Example 179, Pyrimido[2,1-c][1,4]oxazine-2-carboxamide, 4,6,7,9-tetrahydro-3-hydroxy-9,9-dimethyl-4-oxo-N-[[2-(3-thienyl)phenyl]methyl]-], the IC50 was in the range of 2 to 100 nM.

With `Cc1noc(C)c1-c1ccccc1CNC(=O)c1nc2n(c(=O)c1O)CCOC2(C)C` [Example 180, Pyrimido[2,1-c][1,4]oxazine-2-carboxamide, N-[[2-(3,5-dimethyl-4-isoxazolyl)phenyl]methyl]-4,6,7,9-tetrahydro-3-hydroxy-9,9-dimethyl-4-oxo-], the IC50 lay in the range of 2 to 100 nM. The result for `COCc1ccc(-c2ccccc2CNC(=O)c2nc3n(c(=O)c2O)CCOC3(C)C)cc1` [Example 181, Pyrimido[2,1-c][1,4]oxazine-2-carboxamide, 4,6,7,9-tetrahydro-3-hydroxy-N-[[4′-(methoxymethyl)[1,1′-biphenyl]-2-yl]methyl]-9,9-dimethyl-4-oxo-] reads 2 to 100 nM. Take `CC1(C)OCCn2c1nc(C(=O)NCc1ccccc1-c1ccc3c(c1)OCO3)c(O)c2=O` [Example 187, Pyrimido[2,1-c][1,4]oxazine-2-carboxamide, N-[[2-(1,3-benzodioxol-5-yl)phenyl]methyl]-4,6,7,9-tetrahydro-3-hydroxy-9,9-dimethyl-4-oxo-]: the half-inhibitory concentration (IC50) was 2 to 100 nM.

Take `CC1(C)OCCn2c1nc(C(=O)NCc1ccccc1-c1ccc(F)c(F)c1)c(O)c2=O` [Example 188, Pyrimido[2,1-c][1,4]oxazine-2-carboxamide, N-[(3′,4′-difluoro[1,1′-biphenyl]-2-yl)methyl]-4,6,7,9-tetrahydro-3-hydroxy-9,9-dimethyl-4-oxo-]: the half-maximal inhibitory concentration (IC50) is 2 to 100 nM. Next, `CC1(C)OCCn2c1nc(C(=O)NCc1ccccc1-c1ccc(CC#N)cc1)c(O)c2=O` [Example 189, Pyrimido[2,1-c][1,4]oxazine-2-carboxamide, N-[[4′-(cyanomethyl)[1,1′-biphenyl]-2-yl]methyl]-4,6,7,9-tetrahydro-3-hydroxy-9,9-dimethyl-4-oxo-]: 2 to 100 nM.

Turning to `CC1(C)OCCn2c1nc(C(=O)NCc1ccccc1-c1ccncc1)c(O)c2=O` [Example 190, Pyrimido[2,1-c][1,4]oxazine-2-carboxamide, 4,6,7,9-tetrahydro-3-hydroxy-9,9-dimethyl-4-oxo-N-[[2-(4-pyridinyl)phenyl]methyl]-], the IC50 was in the range of 2 to 100 nM. Next, `Cc1ccncc1-c1ccccc1CNC(=O)c1nc2n(c(=O)c1O)CCOC2(C)C` [Example 191, Pyrimido[2,1-c][1,4]oxazine-2-carboxamide, 4,6,7,9-tetrahydro-3-hydroxy-9,9-dimethyl-N-[[2-(4-methyl-3-pyridinyl)phenyl]methyl]-4-oxo-]: 2 to 100 nM. Turning to `Cc1cc(-c2ccccc2CNC(=O)c2nc3n(c(=O)c2O)CCOC3(C)C)cnc1F` [Example 192, Pyrimido[2,1-c][1,4]oxazine-2-carboxamide, N-[[2-(6-fluoro-5-methyl-3-pyridinyl)phenyl]methyl]-4,6,7,9-tetrahydro-3-hydroxy-9,9-dimethyl-4-oxo-], the IC50 was in the range of 2 to 100 nM.

As to `COc1ncc(-c2ccccc2CNC(=O)c2nc3n(c(=O)c2O)CCOC3(C)C)cc1Cl` [Example 193, Pyrimido[2,1-c][1,4]oxazine-2-carboxamide, N-[[2-(5-chloro-6-methoxy-3-pyridinyl)phenyl]methyl]-4,6,7,9-tetrahydro-3-hydroxy-9,9-dimethyl-4-oxo-], the IC50 lay within 2 to 100 nM. As for `CC1(C)OCCn2c1nc(C(=O)NCc1ccccc1-c1cnc3ccccc3c1)c(O)c2=O` [Example 194, Pyrimido[2,1-c][1,4]oxazine-2-carboxamide, 4,6,7,9-tetrahydro-3-hydroxy-9,9-dimethyl-4-oxo-N-[[2-(3-quinolinyl)phenyl]methyl]-], the IC50 lay within 2 to 100 nM. Next, `CN(C)CCNC(=O)c1cccc(-c2ccccc2CNC(=O)c2nc3n(c(=O)c2O)CCOC3(C)C)c1` [Example 195, Pyrimido[2,1-c][1,4]oxazine-2-carboxamide, N-[[3′-[[[2-(dimethylamino)ethyl]amino]carbonyl][1,1′-bzphenyl]-2-yl]methyl]-4,6,7,9-tetrahydro-3-hydroxy-9,9-dimethyl-4-oxo-]: 2 to 100 nM. The result for `CN1CCN(C(=O)c2ccc(-c3ccccc3CNC(=O)c3nc4n(c(=O)c3O)CCOC4(C)C)cc2)CC1` [Example 196, Pyrimido[2,1-c][1,4]oxazine-2-carboxamide, 4,6,7,9-tetrahydro-3-hydroxy-9,9-dimethyl-N-[[4′-[(4-methyl-1-piperazinyl)carbonyl][1,1′-biphenyl]-2-yl]methyl]-4-oxo-] reads 2 to 100 nM; that for `CC1(C)OCCn2c1nc(C(=O)NCc1ccccc1-c1cccc3ncccc13)c(O)c2=O` [Example 197, Pyrimido[2,1-c][1,4]oxazine-2-carboxamide, 4,6,7,9-tetrahydro-3-hydroxy-9,9-dimethyl-4-oxo-N-[[2-(5-quinolinyl)phenyl]methyl]-], 2 to 100 nM. Take `CC1(C)OCCn2c1nc(C(=O)NCc1ccccc1-c1ccoc1)c(O)c2=O` [Example 198, Pyrimido[2,1-c][1,4]oxazine-2-carboxamide, N-[[2-(3-furanyl)phenyl]methyl]-4,6,7,9-tetrahydro-3-hydroxy-9,9-dimethyl-4-oxo-]: the half-inhibitory concentration (IC50) was in the range of 2 to 100 nM. Consider `CCOc1ccc(-c2ccccc2CNC(=O)c2nc3n(c(=O)c2O)CCOC3(C)C)cn1` [Example 199, Pyrimido[2,1-c][1,4]oxazine-2-carboxamide, N-[[2-(6-ethoxy-3-pyridinyl)phenyl]methyl]-4,6,7,9-tetrahydro-3-hydroxy-9,9-dimethyl-4-oxo-], for which the IC50 fell in the range of 2 to 100 nM.

In the case of `CC1(C)OCCn2c1nc(C(=O)NCc1ccccc1C1=CCCC1)c(O)c2=O` [Example 200, Pyrimido[2,1-c][1,4]oxazine-2-carboxamide, N-[[2-(1-cyclopenten-1-yl)phenyl]methyl]-4,6,7,9-tetrahydro-3-hydroxy-9,9-dimethyl-4-oxo-], the half-inhibitory concentration (IC50) fell in the range of 2 to 100 nM.

For `CC1(C)OCCn2c1nc(C(=O)NCc1cc(Br)c(F)cc1Br)c(O)c2=O` [Example 201, Pyrimido[2,1-c][1,4]oxazine-2-carboxamide, N-[(4-fluoro-2,5-dibromophenyl)methyl]-4,6,7,9-tetrahydro-3-hydroxy-9,9-dimethyl-4-oxo], the IC50 was in the range of 2 to 100 nM. The result for `CC1(C)OCCCn2c1nc(C(=O)NCc1ccc(F)cc1S(C)(=O)=O)c(O)c2=O` [Example 202, 6H-Pyrimido[2,1-c][1,4]oxazepine-2-carboxamide, N-[[4-fluoro-2-(methylsulfonyl)phenyl]methyl]-4,7,8,10-tetrahydro-3-hydroxy-10,10-dimethyl-4-oxo-] reads 2 to 100 nM.
